Test results published in patent US9169217B2, “Arylalkyl esters of 4-amino-6-(substituted phenyl)-picolinates and 6-amino-2-(substituted phenyl)-pyrimidinecarboxylates and their use as selective herbicides for crops” (Dow AgroSciences LLC, priority 2011, dated 2015).

Legend:
[1] = test system: Echinochloa colonum (L.) LINK (junglerice); test: Postemergence foliar-applied herbicidal activity in direct seeded rice (Example 16); format: in vivo; conditions: Echinochloa colona, post-emergence, 504 h, rice cropping systems, 8.75 g ae/ha, 21 DAA, may represent multiple trials, read-out: Visual Injury (%) ECHCO
Description: (§1) Seeds or nutlets of the desired test plant species were planted in a soil matrix prepared by mixing a loam soil (43 percent silt, 19 percent clay, and 38 percent sand, with a pH of about 8.1 and an organic matter content of about 1.5 percent) and river sand in an 80 to 20 ratio. The soil matrix was contained in plastic pots with a surface area of 139.7 cm^2. When required to ensure good germination and healthy plants, a fungicide treatment and/or other chemical or physical treatment was applied. The plants were grown for 10-17 d in a greenhouse with an approximate 14-h photoperiod which was maintained at about 29° C. during the day and 26° C. during the night. Nutrients and water were added on a regular basis and supplemental lighting was provided with overhead metal halide 1000-Watt lamps as necessary. The plants were employed for testing when they reached the second or third true leaf stage.
(§2) Treatments consisted of esters of compounds 1-4, 6-8, 10, 11, 13-16, 20-31, 35, 38, 41 and 42 and A-E. Compound A is methyl 4-amino-3-chloro-6-(4-chloro-3-ethoxy-2-fluorophenyl)-5-fluoropicolinate; compound B is methyl 4-amino-3-chloro-6-(4-cyclopropylphenyl)-5-fluoropicolinate; compound C is methyl 4-amino-3-chloro-6-(2,4-dichloro-3-methoxyphenyl)picolinate; compound D is methyl 6-amino-2-(4-chloro-2-fluoro-3-methoxyphenyl)-5-vinylpyrimidine-4-carboxylate; and compound E is methyl 4-amino-3-chloro-6-(4-chloro-2-fluoro-3-methoxyphenyl)-5-fluoropicolinate. Weighed amounts of technical grade compounds were placed in 25 mL glass vials and dissolved in a volume of 97:3 v/v acetone-DMSO to obtain 12× stock solutions. […] The concentrated stock solutions were added to the spray solutions so that the final acetone and DMSO concentrations were 16.2% and 0.5%, respectively. Spray solutions were diluted to the appropriate final concentrations with the addition of 10 mL of an aqueous mixture of 1.5% (v/v) Agri-dex crop oil concentrate. Generally, multiple concentrations of spray solutions were formulated and tested utilizing the same stock solution. The final spray solutions contained 1.25% (v/v) Agri-dex crop oil concentrate. Compound requirements are based upon a 12 mL application volume at a rate of 187 L/ha. Spray solutions were applied to the plant material with an overhead Mandel track sprayer equipped with 8002E nozzles calibrated to deliver 187 L/ha over an application area of 0.503 square meters (m^2) at a spray height of 18 inches (43 cm) above average plant canopy height. Control plants were sprayed in the same manner with the solvent blank.
(§3) The treated plants and control plants were placed in a greenhouse as described above and watered by sub-irrigation to prevent wash-off of the test compounds. After 3 weeks, the condition of the test plants, compared with that of the untreated plants, was determined visually and scored on a scale of 0 to 100 percent where 0 corresponds to no injury and 100 corresponds to complete kill.
(§4) By applying the well-accepted probit analysis as described by J. Berkson in Journal of the American Statistical […], 48, 565 (1953) and by D. Finney in “Probit Analysis” Cambridge University Press (1952), the data gathered can be used to calculate GR50 and GR80 values, which are defined as growth reduction factors that correspond to the effective dose of herbicide required to kill or control 50 percent or 80 percent, respectively, of a target plant.

[2] = test system: Echinochloa crus-galli (L.) P.BEAUV. (barnyardgrass); test: as above; format: in vivo; conditions: rice cropping systems, 8.75 g ae/ha, 21 DAA, may represent multiple trials
Description: as §1, §2, §3, §4

[3] = test system: Echinochloa crus-galli (L.) P.BEAUV. (barnyardgrass); test: In-water applied herbicidal activity in transplanted paddy rice (Example 17); format: in vivo; conditions: Echinochloa crus-galli, 504 h, rice cropping systems, in-water applied (paddy), 21 DAA, may represent multiple trials, read-out: Visual Injury (%) ECHCG; for pest or weed control at 35 g/ha: 35 g ae/ha; for pest or weed control at 17.5 g/ha: 17.5 g ae/ha
Procedure: (§5) Weed seeds or nutlets of the desired test plant species were planted in puddled soil (mud) prepared by mixing a non-sterilized mineral soil (28 percent silt, 18 percent clay, and 54 percent sand, with a pH of about 7.3 to 7.8 and an organic matter content of about 1.0 percent) and water at a ratio of 100 kilograms (kg) of soil to 19 liters (L) of water. The prepared mud was dispensed in 250 mL aliquots into 480 mL non-perforated plastic pots with a surface area of 91.6 cm^2 leaving a headspace of 3 cm in each pot. Rice seeds were planted in Sun Gro MetroMix 306 planting mixture, which typically has a pH of 6.0 to 6.8 and an organic matter content of about 30 percent, in plastic plug trays. Seedlings at the second or third leaf stage of growth were transplanted into 650 mL of mud contained in 960 mL non-perforated plastic pots with a surface area of 91.6 cm^2 four days prior to herbicide application. The paddy was created by filling the 3 cm headspace of the pots with water. When required to ensure good germination and healthy plants, a fungicide treatment and/or other chemical or physical treatment was applied. The plants were grown for 4-14 d in a greenhouse with an approximate 14-h photoperiod which was maintained at about 29° C. during the day and 26° C. during the night. Nutrients were added as Osmocote (17:6:10, Nitrogen:Phosphorus:Potassium (N:P:K)+minor nutrients) at 2 grams (g) per cup. Water was added on a regular basis to maintain the paddy flood, and supplemental lighting was provided with overhead metal halide 1000-Watt lamps as necessary. The plants were employed for testing when they reached the second or third true leaf stage.
(§6) Treatments consisted of esters of compounds 1-4, 6-33, 35-39, 41 and 42 and A-G. Compound A is methyl 4-amino-3-chloro-6-(4-chloro-3-ethoxy-2-fluorophenyl)-5-fluoropicolinate; compound B is methyl 4-amino-3-chloro-6-(4-cyclopropylphenyl)-5-fluoropicolinate; compound C is methyl 4-amino-3-chloro-6-(2,4-dichloro-3-methoxyphenyl)picolinate; compound D is methyl 6-amino-2-(4-chloro-2-fluoro-3-methoxyphenyl)-5-vinylpyrimidine-4-carboxylate; compound E is methyl 4-amino-3-chloro-6-(4-chloro-2-fluoro-3-methoxyphenyl)-5-fluoropicolinate; compound F is methyl 6-amino-2-(4-chloro-2-fluoro-3-methoxyphenyl)-5-methoxypyrimidine-4-carboxylate; and compound G is methyl 4-amino-3-chloro-6-(4-chloro-2-fluoro-3-methoxyphenyl)picolinate. Weighed amounts of technical grade compounds were placed in individual 120 mL glass vials and were dissolved in 20 mL of acetone to obtain concentrated stock solutions. […] The concentrated stock solutions obtained were diluted with 20 mL of an aqueous mixture containing 2.5% Agri-dex crop oil concentrate (v/v). The final application solutions contained 1.25% (v/v) Agri-dex crop oil concentrate. Generally, multiple concentrations were tested utilizing the same stock solution. Applications were made by injecting an appropriate amount of the application solution into the aqueous layer of the paddy. Control plants were treated in the same manner with the solvent blank.
as §3, with “water was added as needed” for “watered by sub-irrigation”, “maintain a paddy flood.” for “prevent wash-off of the test compounds.”, “weeks” for “weeks,”
as §4

[4] = test system: Scirpus juncoides ROXB. (Japanese bulrush); test: Postemergence foliar-applied herbicidal activity in direct seeded rice (Example 16); format: in vivo; conditions: Schoenoplectiella juncoides, post-emergence, 504 h; rice cropping systems, foliar-applied, 8.75 g ae/ha, 21 DAA; may represent multiple trials; read-out: Visual Injury (%) SCPJU
Description: as §1, §2, §3, §4

[5] = test system: Cyperus difformis L. (small-flower flatsedge); test: as above; format: in vivo; conditions: post-emergence, 504 h, rice cropping systems, foliar-applied, 8.75 g ae/ha, 21 DAA, may represent multiple trials, read-out: Visual Injury (%) CYPDI
Description: as §1, §2, §3, §4

[6] = test system: Scirpus juncoides ROXB. (Japanese bulrush); test: In-water applied herbicidal activity in transplanted paddy rice (Example 17); format: in vivo; conditions: Schoenoplectiella juncoides, 504 h; rice cropping systems, in-water applied (paddy), 17.5 g ae/ha, 21 DAA; may represent multiple trials; read-out: Visual Injury (%) SCPJU
Procedure: as §5, §6
as §3, with “water was added as needed” for “watered by sub-irrigation”, “maintain a paddy flood.” for “prevent wash-off of the test compounds.”, “weeks” for “weeks,”
as §4

[7] = test system: Fimbristylis miliacea (L.) VAHL (globe fringerush); test: as above; format: in vivo; conditions: rice cropping systems, in-water applied (paddy), 35 g ae/ha, 21 DAA; may represent multiple trials
Procedure: as §5, §6
as §3, with “water was added as needed” for “watered by sub-irrigation”, “maintain a paddy flood.” for “prevent wash-off of the test compounds.”, “weeks” for “weeks,”
as §4

melting point [°C]	SMILES	pest or weed control at 8.75 g/ha [1] [%]	Visual Injury (%) ECHCG [2] [%]	pest or weed control at 35 g/ha [3] [%]	pest or weed control at 8.75 g/ha [4] [%]	pest or weed control at 8.75 g/ha [5] [%]	pest or weed control at 17.5 g/ha [6] [%]	pest or weed control at 17.5 g/ha [3] [%]	Visual Injury (%) FIMMI [7] [%]
143 to 144	COc1c(Cl)ccc(-c2nc(C(=O)OCc3ccc(F)cc3)c(Cl)c(N)c2F)c1F [Compound 24]				100	100	100	70	
145	COc1c(Cl)ccc(-c2nc(C(=O)OCc3ccc(SC)cc3)c(Cl)c(N)c2F)c1F [Compound 31]				100	100	85	50	
107 to 108	COc1c(Cl)ccc(-c2nc(C(=O)OCCc3ccc(Cl)cc3)c(Cl)c(N)c2F)c1F [Compound 22]				90	100	40	0	
160 to 161	COc1c(Cl)ccc(-c2nc(C(=O)OCc3cccc(F)c3)c(Cl)c(N)c2F)c1F [Compound 23]				100	100	95	60	
142 to 143	COc1c(Cl)ccc(-c2nc(C(=O)OCc3ccc4ccccc4c3)c(Cl)c(N)c2F)c1F [Compound 28]				100	100	50	10	
75 to 76	COc1c(Cl)ccc(-c2nc(C(=O)OCc3ccc(C(C)C)cc3)c(Cl)c(N)c2F)c1F [Compound 27]				100	100	80	10	
143	COc1c(Cl)ccc(-c2nc(C(=O)OCc3ccc(Cl)cc3)c(Cl)c(N)c2F)c1F [Compound 2, 4-chlorobenzyl 4-amino-3-chloro-6-(4-chloro-2-fluoro-3-methoxyphenyl)-5-fluoropicolinate]				100	100	99	97	
135	COc1c(Cl)ccc(-c2nc(C(=O)OCc3ccccc3C)c(Cl)c(N)c2F)c1F [Compound 8]				99	99	100	100	

Second part, the compound before the results:

SMILES	melting point [°C]	pest or weed control at 8.75 g/ha [1] [%]	Visual Injury (%) ECHCG [2] [%]	pest or weed control at 35 g/ha [3] [%]	pest or weed control at 8.75 g/ha [4] [%]	pest or weed control at 8.75 g/ha [5] [%]	pest or weed control at 17.5 g/ha [6] [%]	pest or weed control at 17.5 g/ha [3] [%]	Visual Injury (%) FIMMI [7] [%]
C=Cc1c(N)nc(-c2ccc(Cl)c(OC)c2F)nc1C(=O)OC [D, methyl 6-amino-2-(4-chloro-2-fluoro-3-methoxyphenyl)-5-vinylpyrimidine-4-carboxylate, reference compound]		79	87	54					
COc1ccc(COC(=O)c2nc(-c3ccc(Cl)c(OC)c3F)cc(N)c2Cl)cc1 [Compound 36, 4-methoxybenzyl 4-amino-3-chloro-6-(4-chloro-2-fluoro-3-methoxyphenyl)picolinate]									100
COc1c(Cl)ccc(-c2nc(C(=O)OCc3ccc(Cl)cc3C)c(Cl)c(N)c2F)c1F [Compound 30]	167 to 168				0	99	85	50	
COc1c(Cl)ccc(-c2nc(C(=O)OCc3ccccc3F)c(Cl)c(N)c2F)c1F [Compound 25]	169				100	100	90	10	
COc1ccccc1COC(=O)c1nc(-c2ccc(Cl)c(OC)c2F)c(F)c(N)c1Cl [Compound 10]	135 to 136				91	100	100	70	
C=Cc1c(N)nc(-c2ccc(Cl)c(OC)c2F)nc1C(=O)OCc1ccccc1 [Compound 35, benzyl 6-amino-2-(4-chloro-2-fluoro-3-methoxyphenyl)-5-vinylpyrimidine-4-carboxylate]	119 to 121	90	95	76					
